In ChEMBL document CHEMBL1268862, “Eucophylline, a Tetracyclic Vinylquinoline Alkaloid from Leuconotis eugenifolius” (J Nat Prod, 2010):

Test: Antiinflammatory activity in mouse J774.1 cells assessed as inhibition of LPS-induced NO production
Assay type: functional, cell-based

Row | Structure (SMILES) | IC50
1 | C=Cc1c2c(nc3cc(O)c([C@@H]4C[C@@]5(CC)CCCN6CCc7c(n4c4ccccc74)[C@H]65)cc13)N1CCC[C@](CC)(C2)C1 [LEUCOPHYLLIDINE] | 7.1 µM
2 | CNC(=N)NCCC[C@H](N)C(=O)O [TILARGININE] | 22 µg/mL
